In patent publication US20260158050A1, “USE OF EIDD-1931 OR DERIVATIVE THEREOF IN TREATMENT OF ENTEROVIRUS INFECTION” (ACADEMY OF MILITARY MEDICAL SCIENCES, priority 2022, published 2026):

Test system: EV-A71
Assay: time series experiment, intracellular viral RNA load in RD cells
Type: cell-based
Conditions: 10 μM, 0.01 MOI (FIG. 5)
Experimental: The specific steps were as follows: RD cells were seeded in a 12-well plate at a density of about 4.0×10^5 per well and cultured at 37° C. and 5% CO2 for 24 hours. Subsequently, the test compound EIDD-1931, the positive compound NITD008 and the EV-A71 virus were diluted to the corresponding concentrations with the cell maintenance medium, and then the pre-diluted compound or virus was added at the time point as shown in A in FIG. 5. After 30 hours of continuous culture, the cell supernatant was discarded, the intracellular RNA was extracted, and the intracellular viral RNA load was detected by qRT-PCR. The intracellular RNA extraction method and qRT-PCR system and reaction conditions were the same as described above.

O=c1nc(NO)ccn1[C@@H]1O[C@H](CO)[C@@H](O)[C@H]1O [EIDD-1931]
inhibition on the adsorption and entry of the virus: no obvious inhibition
stage of virus infection at which the antiviral effect is exerted: viral replication stage
